From US7915297B2, “Isoxazole derivatives and use thereof” (SK Holdings Co., Ltd., priority 2005, dated 2011)

Legend:
[1] = test system: Wnt/β-catenin signaling (β-catenin activity) in SW480 cell line; assay: Cell-based Wnt agonist screening, TCF luciferase reporter, SW480 (TCF-FL); parameters: species or system human; settings: Homo sapiens, % of LiCl (20 mM), 24 h, read-out: Max. Activity (%); for Emax at 1 µM: Con. 1 μM; for Emax at 30 µM: Con. 30 μM; for Emax at 120 µM: Con. 120 μM; for Emax at 10 µM: Con. 10 μM
Source text: (§1) In order to measure the in vitro activity of compounds of the present invention, two human cancer cell lines, HEK293 and SW480, which have intact Wnt signaling and show APC gene mutation in the Wnt signaling pathway, respectively, were used.
(§2) For evaluating the activity of wnt/β-catenin signaling in the cancer cell lines, gene as illustrated in FIG. 1 having β-catenin-binding sites of the Tcf/Lef transcriptional control protein (5 sites of TCF, 5X TCF) and having a fire fly luficerase as a marker protein ascertainable the activity of 5X TCF was introduced into the cells. Treatment with G418 led monoclones of the cell lines, in which the genes were permanently expressed, so as to construct a cell-based Wnt agonist screening system. […] For comparison with the activity of the isoxazole derivatives as Wnt agonists, lithium chloride (LiCl), acting as a positive control for the cell-based Wnt agonist screening system, was used to determine the expression level of the luciferase, and the results are shown in FIG. 3.
(§3) The cell lines, in which a cell-based Wnt agonist screening system was constructed, were cultured in RPMI 1640 media supplemented with penicillin-streptomycin (100 Units/mL) and heat-inactivated 5% fetal bovine serum under standard culture conditions (5% CO2, 37° C., 100% relative humidity). […] The suspension was diluted with the same medium to adjust the cell count to 8,000˜15,000 cells per well and was moved then in a 96-well microtiter plate. After being incubated for 24 hrs, the cells were treated with various concentrations of the isoxazole derivatives synthesized in Preparation Examples. Incubation for an additional 24 hours was followed by the quantitative analysis of luciferase activity using a Luciferase Assay kit (Promega, U.S.A.) according to the protocol described in the manual provided by the manufacturer. Data on the activities of the isoxazole derivatives thus synthesized are given in Tables 34 to 43, and are expressed as percentages relative to the activity of the positive control LiCl (20 mM), a well-known agonist of Wnt signaling.

[2] = test system: Wnt/β-catenin signaling (β-catenin activity) in HEK293 cell line; assay: Cell-based Wnt agonist screening, TCF luciferase reporter, HEK293 (TCF-FL); parameters: species or system human; settings: Homo sapiens, HEK293, 24 h, % of LiCl (20 mM), 24 h, read-out: Max. Activity (%); for Emax at 30 µM: Conc. 30 μM; for Emax at 120 µM: Conc. 120 μM
Source text: as §1, §2, §3

Compound	Emax at 30 µM [1]	Emax at 120 µM [1]	also measured
O=C(NCCn1nccn1)c1cc(-c2cccs2)on1 [Derivative (136), 5-thiophen-2-yl-isoxazole-3-carboxylic acid (2-[1,2,3]triazol-2-yl-ethyl)-amide]			Emax at 1 µM [1]: 837%
O=C(NCCCn1ccnc1)c1cc(-c2ccccn2)on1 [Derivative (75), 5-pyridin-2-yl-isoxazole-3-carboxylic acid (3-imidazol-1-yl-propyl)-amide]	< 20%		Emax at 30 µM [2]: < 20%
O=C(NCCCCn1ccnc1)c1cc(-c2ccco2)on1 [Derivative (34), 5-furan-2-yl-isoxazole-3-carboxylic acid (4-imidazol-1-yl-butyl)-amide]		120%	Emax at 120 µM [2]: 44%
O=C(NCCc1ccccn1)c1cc(-c2ccco2)on1 [Derivative (10), 5-furan-2-yl-isoxazole-3-carboxylic acid (2-pyridin-2-yl-ethyl)-amide]			Emax at 120 µM [2]: 32%
O=C(NCc1ccncc1)c1cc(-c2ccco2)on1 [Derivative (9), 5-furan-2-yl-isoxazole-3-carboxylic acid (pyridin-4-ylmethyl)-amide]	< 20%		Emax at 30 µM [2]: < 20%
O=C(NCCc1ccc(O)cc1)c1cc(-c2ccccc2)on1 [Derivative (73), 5-phenyl-isoxazole-3-carboxylic acid [2-(4-hydroxy-phenyl)-ethyl]-amide]	853%		
CN1CCN(C(=O)OCc2cc(-c3ccco3)on2)CC1 [Derivative (253), 4-methyl-piperazine-1-carboxylic acid 5-furan-2-yl-isoxazol-3-ylmethyl ester]			Emax at 10 µM [1]: 66%
O=C(NCCn1cncn1)c1cc(-c2ccsc2)on1 [Derivative (158), 5-thiophen-3-yl-isoxazole-3-carboxylic acid (2-[1,2,4]-triazol-1-yl-ethyl)-amide]		414%	
O=C(c1cc(-c2cccs2)on1)N1CCN(c2ncccn2)CC1 [Derivative (222), (4-pyrimidin-2-yl-piperazin-1-yl)-(5-thiophen-2-yl-isoxazol-3-yl)-methanone]	57%		
O=C(NCCOc1ccccc1)c1cc(-c2ccco2)on1 [Derivative (214), 5-furan-2-yl-isoxazole-3-carboxylic acid (2-phenoxy-ethyl)-amide]			Emax at 1 µM [1]: 161%
O=C(NCCc1cccnc1)c1cc(-c2ccccc2)on1 [Derivative (71), 5-phenyl-isoxazole-3-carboxylic acid (2-pyridin-3-yl-ethyl)-amide]	919%		
O=C(NCCn1nccn1)c1cc(-c2ccco2)on1 [Derivative (40), 5-furan-2-yl-isoxazole-3-carboxylic acid (2-[1,2,3]triazol-2-yl-ethyl)-amide]	896%		
CN1CCN(CCNC(=O)c2cc(-c3ccco3)on2)CC1 [Derivative (177), 5-furan-2-yl-isoxazole-3-carboxylic acid [2-(4-methyl-piperazin-1-yl)-ethyl]-amide]	582%		
O=C(OCc1cc(-c2ccco2)on1)n1ccnc1 [Derivative (251), imidazole-1-carboxylic acid 5-furan-2-yl-isoxazol-3-ylmethyl ester]		35%	
O=C(c1cc(-c2cccs2)on1)N1CCC(N2CCCC2)CC1 [Derivative (223), (4-pyrrolidin-1-yl-piperidin-1-yl)-(5-thiophen-2-yl-isoxazol-3-yl)-methanone]	50%		
O=C(NCCN1CCCCC1)c1cc(-c2ccco2)on1 [Derivative (174), 5-furan-2-yl-isoxazole-3-carboxylic acid (2-piperidin-1-yl-ethyl)-amide]		79%	
O=C(NCCCn1ccnc1)c1cc(-c2ccc(Br)s2)on1 [Derivative (143), 5-(5-bromo-thiophen-2-yl)-isoxazole-3-carboxylic acid (3-imidazol-1-yl-propyl)-amide]		93%	

Compound	Emax at 30 µM [1]	Emax at 120 µM [1]	also measured
O=C(NCCNc1ccccc1)c1cc(-c2ccco2)on1 [Derivative (195), 5-furan-2-yl-isoxazole-3-carboxylic acid (2-phenylamino-ethyl)-amide]			Emax at 1 µM [1]: 84%
O=C(NCCc1ccc(O)cc1)c1cc(-c2ccco2)on1 [Derivative (22), 5-furan-2-yl-isoxazole-3-carboxylic acid [2-(4-hydroxy-phenyl)-ethyl]-amide]			Emax at 30 µM [2]: < 20%
CN(CCc1ccccn1)C(=O)c1cc(-c2ccco2)on1 [Derivative (61), 5-furan-2-yl-isoxazole-3-carboxylic acid methyl-(2-pyridin-2-yl-ethyl)-amide]		56%	
O=C(NCCS(=O)(=O)c1ccccc1)c1cc(-c2cccs2)on1 [Derivative (219), 5-thiophen-2-yl-isoxazole-3-carboxylic acid (2-benzenesulfonyl-ethyl)-amide]	113%		
O=C(CCNC(=O)c1cc(-c2cccs2)on1)Nc1ccccc1 [Derivative (209), 5-thiophen-2-yl-isoxazole-3-carboxylic acid (2-phenylcarbamoyl-ethyl)-amide]	246%		
CC(=O)N1CCN(C(=O)OCc2cc(-c3ccco3)on2)CC1 [Derivative (252), 4-acetyl-piperazine-1-carboxylic acid 5-furan-2-yl-isoxazol-3-ylmethyl ester]		49%	
O=C(NCCCn1ccnc1)c1cc(-c2ccoc2)on1 [Derivative (152), 5-furan-3-yl-isoxazole-3-carboxylic acid (3-imidazol-1-yl-propyl)-amide]		374%	
Nc1ccc(-c2cc(C(=O)NCCCn3ccnc3)no2)cc1 [Derivative (120), 5-(4-amino-phenyl)-isoxazole-3-carboxylic acid (3-imidazol-1-yl-propyl)-amide]		246%	
O=C(NCCc1ccncc1)c1cc(-c2ccco2)on1 [Derivative (12), 5-furan-2-yl-isoxazole-3-carboxylic acid (2-pyridin-4-yl-ethyl)-amide]			Emax at 60 µM ([2]; Conc. 60 μM): 109%
O=C(NCCn1cncn1)c1cc(-c2ccco2)on1 [Derivative (38), 5-furan-2-yl-isoxazole-3-carboxylic acid (2-[1,2,4]triazol-1-yl-ethyl)-amide]			Emax at 10 µM [1]: 551%
O=C(NCCn1cncn1)c1cc(-c2cccs2)on1 [Derivative (135), 5-thiophen-2-yl-isoxazole-3-carboxylic acid (2-[1,2,4]triazol-1-yl-ethyl)-amide]		945%	
O=C(NCCCn1cncn1)c1cc(-c2ccoc2)on1 [Derivative (153), 5-furan-3-yl-isoxazole-3-carboxylic acid (3-[1,2,4]-triazol-1-yl-propyl)-amide]			Emax at 10 µM [1]: 304%
O=C(NCCn1ccnn1)c1cc(-c2ccco2)on1 [Derivative (41), 5-furan-2-yl-isoxazole-3-carboxylic acid (2-[1,2,3]triazol-1-yl-ethyl)-amide]	676%		
O=C(NCCc1cccnc1)c1cc(-c2cccs2)on1 [Derivative (139), 5-thiophen-2-yl-isoxazole-3-carboxylic acid (2-pyridin-3-yl-ethyl)-amide]	922%		
O=C(NCc1ccncc1)OCc1cc(-c2ccco2)on1 [Derivative (254), pyridin-4-ylmethyl-carbamic acid 5-furan-2-yl-isoxazol-3-ylmethyl ester]		37%	
O=C(c1cc(-c2cccs2)on1)N1CCN(c2ccccn2)CC1 [Derivative (221), (4-pyridin-2-yl-piperazin-1-yl)-(5-thiophen-2-yl-isoxazol-3-yl)-methanone]	51%		
